The supplement of paper PMC12317010
Counter-ions that a name gives are not always drawn.

Assay: collision cross section in nitrogen (drift tube, single-field); higher = larger gas-phase ion size
[1] = ion type: [M+H], ion source: APCI, ion mode: Positive
[2] = ion type: [M+H], ion source: ESI, ion mode: Positive
[3] = ion type: [M+Na], ion source: ESI, ion mode: Positive
[4] = ion type: [M-H], ion source: ESI, ion mode: Negative
[5] = ion type: [M+], ion source: APCI, ion mode: Positive
[6] = ion source: ESI, ion mode: Positive, ion type: [M]+ (permanent cation)
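Also: chemical standards at 10 µM analysed by drift tube IMS-QTOF MS in about 3.95 torr nitrogen, mean of duplicate injections differing ≤1%, mass error below 10 ppm.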

Row | Compound | collision cross section in nitrogen [1] [Å²] | collision cross section in nitrogen [2] [Å²] | collision cross section in nitrogen [3] [Å²] | collision cross section in nitrogen [4] [Å²] | also measured
1 | O=C(O)C1C(C(=O)O)C2(Cl)C(Cl)=C(Cl)C1(Cl)C2(Cl)Cl (stereo unspecified) [Chlorendic acid] | – | – | – | 159 | –
2 | O=S(=O)(O)C(F)(F)C(F)(F)C(F)(F)C(F)(F)C(F)(F)C(F)(F)C(F)(F)C(F)(F)F [Lithium perfluorooctanesulfonate] | – | – | – | 168.3 | –
3 | CCOc1cc(C(C)(C)C)ccc1C1COC(c2c(F)cccc2F)=N1 (stereo unspecified) [Etoxazole] | 186.3 | 186.5 | 196 | – | collision cross section in nitrogen [5]: 186.5 Å²
4 | CN(C)c1nc(=O)n(C2CCCCC2)c(=O)n1C [Hexazinone] | 163 | 162.8 | 176.3 | – | –
5 | COS(=O)(=O)c1ccccc1 [Methyl benzenesulphonate] | – | – | – | 135 | –
6 | c1ccc(N=NNc2ccccc2)cc1 [Diazoaminobenzene] | – | 147 | – | – | –
7 | CN(N=O)c1ccccc1 [N-Methyl-N-nitrosoaniline] | 124.5 | 125.1 | – | – | –
8 | O=C1C[C@@H]2OCC=C3CN4CC[C@]56c7ccccc7N1[C@H]5[C@H]2[C@H]3C[C@H]46 [Strychnine] | 172 | 175.2 | – | – | –
9 | Oc1ccccc1I [2-Iodophenol] | – | – | – | 121.9 | –
10 | Cc1ccc(OP(=O)(Oc2ccc(C)cc2)Oc2ccc(C)cc2)cc1 [Tris(4-methylphenyl) phosphate] | 191 | 190.1 | 200.1 | – | –
11 | CCCCC(CC)COC(=O)CCCCC(=O)OCC(CC)CCCC (stereo unspecified) [Bis(2-ethylhexyl)hexanedioate] | – | – | 216.5 | – | –
12 | C=CC(=O)NC(C)(C)CC(C)=O [Diacetone acrylamide] | – | – | 145.2 | – | –
13 | NC(=O)c1ccc(N)nc1 [6-aminopyridine-3-carboxamide] | 130.2 | 131.3 | – | 124.5 | –
14 | O=[N+]([O-])O [Magnesium dinitrate hexahydrate] | – | – | – | 104.1 | –
15 | CCCCCCCCCc1ccc(O)cc1 [4-Nonylphenol] | – | – | – | 161.4 | –
16 | Nc1ccc(N=Nc2ccccc2)cc1 [C.I. Solvent Yellow 1] | 146.1 | 146.9 | – | 145.4 | –

Row | Compound | collision cross section in nitrogen [1] [Å²] | collision cross section in nitrogen [2] [Å²] | collision cross section in nitrogen [3] [Å²] | collision cross section in nitrogen [4] [Å²] | also measured
17 | CC(C1CC1)C(O)(Cn1cncn1)c1ccc(Cl)cc1 (stereo unspecified) [Cyproconazole] | 170.6 | 170.2 | – | – | –
18 | CCCCCCCCCCCCCCCC[n+]1ccccc1 [Cetylpyridinium bromide] | – | – | – | – | collision cross section in nitrogen (ion source: APCI, ion mode: Positive, ion type: [M]+ (permanent cation)): 193.4 Å²; collision cross section in nitrogen [6]: 194.3 Å²
19 | CC(CCl)OP(=O)(OC(C)CCl)OC(C)CCl (stereo unspecified) [Tris(2-chloroisopropyl)phosphate] | – | – | 171.9 | – | –
20 | c1ccc2cc3c(ccc4ccccc43)cc2c1 [Benz(a)anthracene] | – | – | – | – | collision cross section in nitrogen [5]: 146.3 Å²
21 | O=[N+]([O-])c1ccc(O)c([N+](=O)[O-])c1 [2,4-Dinitrophenol] | – | – | – | 127.8 | –
22 | O=C(O)c1c(Cl)ccc2cc(Cl)cnc12 [Quinclorac] | – | 142.6 | – | – | –
23 | C[N+]1(C)CCCCC1 [1,1-Dimethylpiperidinium chloride] | – | – | – | – | collision cross section in nitrogen [6]: 121.2 Å²
24 | Cc1ccn2nc(S(=O)(=O)Nc3c(F)cccc3F)nc2n1 [Flumetsulam] | 167.4 | 167.7 | 176.7 | 172.5 | –
25 | N#Cc1c[nH]cc1-c1cccc2c1OC(F)(F)O2 [Fludioxonil] | – | – | – | 146.3 | –
26 | O=S1(=O)OC(c2cc(Br)c(O)c(Br)c2)(c2cc(Br)c(O)c(Br)c2)c2ccccc21 [Bromophenol blue] | – | – | – | 214.2 | –
27 | CCOP(=O)(CCP(=O)(OCC)OCC)OCC [Tetraethyl ethylenebisphosphonate] | – | 161.1 | 172.3 | – | –
28 | CCc1nn(C)c(C(=O)NCc2ccc(C(C)(C)C)cc2)c1Cl [Tebufenpyrad] | 193.9 | 193 | 193.2 | 194 | –
29 | COC(=O)N(C(=O)N1COC2(C(=O)OC)Cc3cc(Cl)ccc3C2=N1)c1ccc(OC(F)(F)F)cc1 (racemic) [(+/-)-Indoxacarb] | – | 205.6 | 220.6 | – | –
30 | c1ccc2c(c1)-c1ccc3ccc4cccc5cc-2c1c3c45 [Indeno[1,2,3-cd]pyrene] | – | – | – | – | collision cross section in nitrogen [5]: 156.7 Å²
31 | COCCOC(=O)c1ccccc1C(=O)OCCOC [Di(2-methoxyethyl) phthalate] | – | – | 161.7 | – | –

More lines, main results first:

Row | collision cross section in nitrogen [1] [Å²] | collision cross section in nitrogen [2] [Å²] | collision cross section in nitrogen [3] [Å²] | collision cross section in nitrogen [4] [Å²] | Compound | also measured
32 | 182.7 | 183.3 | 190.7 | – | COc1ccc(OC(F)(F)F)cc1CN[C@H]1CCCN[C@H]1c1ccccc1 | –
33 | – | – | 191.8 | – | CCCOC(=O)c1c(Cl)c(Cl)c(Cl)c(Cl)c1C(=O)OCCC [Dipropyl 3,4,5,6-tetrachlorobenzene-1,2-dicarboxylate] | –
34 | – | – | – | 125.4 | N[C@@H](CCC(=O)O)C(=O)O [Sodium L-glutamate hydrate] | –
35 | 200.1 | 202.8 | 207.9 | 203.8 | NC(=O)Cn1c(=O)cc(CCN2CCN(c3nccc4sccc34)CC2)c2ccc(F)cc21 [Trelanserin] | –
36 | 195.4 | 194.9 | 198.7 | 193.7 | CC(=O)S[C@H](C(=O)N[C@H]1Cc2ccccc2[C@H]2CCC[C@@H](C(=O)O)N2C1=O)C(C)C [Ilepatril] | –
37 | 132.4 | 133.4 | 142.3 | 128.9 | Nc1nc2nc[nH]c2c(=S)[nH]1 [6-Thioguanine] | –
38 | 162.8 | – | – | – | O=C1C(N(CO)C(=O)NCO)N(CO)C(=O)N1CO (stereo unspecified) [Diazolidinyl urea] | –
39 | 153.3 | 153.6 | 167.2 | 154.1 | Nc1ccc(S(=O)(=O)Nc2nccs2)cc1 [Sulfathiazole sodium] | –
40 | – | – | – | 137.1 | CCCC(CCC)C(=O)O [Valproic acid] | –
41 | – | – | – | 145.3 | O=C(O)c1ccc(S(=O)(=O)O)cc1C(=O)O [4-Sulfophthalic acid] | –
42 | 129 | – | – | – | CN1C(=O)c2ccccc2C1=O [N-Methylphthalimide] | –
43 | – | 157.3 | – | – | N#Cc1ccc(C2CCCc3cncn32)cc1 (stereo unspecified) [Fadrozole] | –
44 | – | – | – | 136.9 | O=C(O)c1ccc(C(=O)O)c(C(=O)O)c1 [1,2,4-Benzenetricarboxylic acid] | –
45 | 196.5 | 195.7 | 208.1 | 196.9 | CSc1ccc(Oc2ccc(S(N)(=O)=O)cc2CN(C)C)cc1C | –
46 | 130.7 | 130.9 | – | 131.4 | Cn1c(=S)[nH]c2ccccc21 [1-Methyl-1,3-dihydro-2H-benzimidazole-2-thione] | collision cross section in nitrogen [5]: 127.9 Å²
47 | 152.8 | 152.6 | – | – | CCCN[C@H]1CCc2nc(N)sc2C1 [Pramipexole dihydrochloride monohydrate] | –
48 | 162.5 | – | – | – | ClC(c1ccccc1)(c1ccccc1)c1ccccc1 [Trityl chloride] | –

Row | collision cross section in nitrogen [1] [Å²] | collision cross section in nitrogen [2] [Å²] | collision cross section in nitrogen [3] [Å²] | collision cross section in nitrogen [4] [Å²] | Compound | also measured
49 | – | – | 177.4 | 173.9 | CCc1cccc(C)c1N(C(=O)CS(=O)(=O)O)C(C)COC (stereo unspecified) [Metolachlor ESA] | –
50 | – | 188.3 | – | – | CC(C)c1ccc2c(c1)CC[C@H]1[C@](C)(CN)CCC[C@]21C [Dehydroabietylamine] | –
51 | 179 | 178.2 | 191.4 | 177 | COC(=O)Nc1nc2cc(S(=O)c3ccccc3)ccc2[nH]1 (stereo unspecified) [Oxfendazole] | –
52 | – | – | 155.6 | – | COC(=O)CCCCCCCC(=O)OC [Dimethyl nonanedioate] | –
53 | – | – | – | 151.6 | CCCCCOC(=O)CCCCC [n-Amyl caproate] | –
54 | 157.9 | 157.8 | 164.2 | – | CC(C)NCC(O)COc1ccc(CC(N)=O)cc1 (stereo unspecified) [Atenolol] | –
55 | – | – | – | 210.2 | CC(=O)Nc1cc(S(=O)(=O)O)cc2cc(S(=O)(=O)O)c(N=Nc3ccccc3)c(O)c12 [C.I. Acid Red 1] | –
56 | 123.7 | 123 | – | – | Cc1cc(C)nc(N)n1 [2-Amino-4,6-dimethylpyrimidine] | –
57 | 222.9 | 222.4 | 226.5 | – | N=C(NCCCCCCNC(=N)NC(=N)Nc1ccc(Cl)cc1)NC(=N)Nc1ccc(Cl)cc1 [Chlorhexidine] | –
58 | – | 160.9 | 172 | – | CC(=O)CCCCn1c(=O)c2c(ncn2C)n(C)c1=O [3,7-Dihydro-3,7-dimethyl-1-(5-oxohexyl)-1H-Purine-2,6-dione] | –
59 | – | – | – | 116.1 | O=c1cc[nH]c(=S)[nH]1 [Thiouracil] | –
60 | 159.4 | 159 | – | – | CC(C)(C#N)Nc1nc(Cl)nc(NC2CC2)n1 [Procyazine] | –
61 | – | – | – | 151.2 | O=C(O)COc1ccc2ccccc2c1 [2-Naphthoxyacetic acid] | –
62 | – | – | 167.3 | – | C=C(C)C(=O)OCCCCCCOC(=O)C(=C)C [1,6-Hexanediol dimethacrylate] | –
63 | – | – | – | 134 | O=C(O)c1ccc(C(=O)O)cc1 [Terephthalic acid] | –
64 | – | – | – | 168.1 | COc1cc(O)c(C(=O)c2ccccc2)cc1S(=O)(=O)O [Sulisobenzone] | –
65 | – | 198.2 | – | 198 | CC1(C)CCC(C)(C)c2cc(C(=O)Nc3ccc(C(=O)O)cc3)ccc21 | –
